Test results from patent US10736932B2, “Small molecule Ras inhibitors” (Ohio State Innovation Foundation, priority 2014, dated 2020).
Square brackets hold non-standard residues; d marks the D form. Side chains are listed from the residue outwards. Peptide text beside a SMILES is read from it. * marks the point of attachment. Phe(3,4-F2) = N[C@@H](Cc1ccc(F)c(F)c1)C(=O)O; Phe(4-Cl) = N[C@@H](Cc1ccc(Cl)cc1)C(=O)O; Phe(4-F) = N[C@@H](Cc1ccc(F)cc1)C(=O)O; d2Nal = N[C@H](Cc1ccc2ccccc2c1)C(=O)O; Tle = CC(C)(C)[C@H](N)C(=O)O; dNle = CCCC[C@@H](N)C(=O)O; X3 = N#Cc1ccc(C(=O)*)cc1; Dap = NC[C@H](N)C(=O)O

What follows are compounds tested against T1, K-Ras / Raf RBD interaction (Homo sapiens, UniProt P01116, G12V) (assay: HTRF assay, inhibition of Ras-Raf RBD interaction). Settings: not given.
T1 construct: The G12V mutant K-Ras (amino acids 1-185) was recombinantly fused; GST (N, cleaved yes); made in house; host or cells: Escherichia coli BL21
Assay type: binding
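Also: HTRF signal read after overnight incubation of the assay plate at 4 °C.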

Row | SMILES | IC50 [µM]
1 | CCCC[C@H]1NC(=O)[C@H](Cc2ccc(F)cc2)NC(=O)[C@H](CCCNC(=N)N)NC(=O)[C@@H](Cc2ccc3ccccc3c2)NC(=O)[C@H](C)NC(=O)[C@H](CCCNC(=N)N)NC(=O)[C@H](CCC(=O)N[C@@H](CCCCN)C(N)=O)NC(=O)[C@@H](C)NC(=O)[C@H]([C@@H](C)O)NC(=O)[C@H](Cc2c[nH]c3ccccc23)NC(=O)[C@@H](CO)NC1=O [Cyclorasin 9A(Arg2A), (Arg-Ala-nal-Arg-Fpa-nle-ser-Trp-Thr-ala-Gln)-Lys] (cyclo(RA[d2Nal]R[Phe(4-F)][dNle][dS]WT[dA]E([Lys-NH2]))) | 0.94 ± 0.29
2 | CCCC[C@H]1NC(=O)[C@H](Cc2ccc(F)cc2)NC(=O)[C@H](CCCNC(=N)N)NC(=O)[C@@H](Cc2ccc3ccccc3c2)NC(=O)[C@H](CCCNC(=N)N)NC(=O)[C@H](C)NC(=O)[C@H](CCC(=O)N[C@@H](CCCCN)C(N)=O)NC(=O)[C@@H](C)NC(=O)[C@H]([C@@H](C)O)NC(=O)[C@H](Cc2c[nH]c3ccccc23)NC(=O)[C@@H](CO)NC1=O [Cyclorasin 9A(Arg1A), (Ala-Arg-nal-Arg-Fpa-nle-ser-Trp-Thr-ala-Gln)-Lys] (cyclo(AR[d2Nal]R[Phe(4-F)][dNle][dS]WT[dA]E([Lys-NH2]))) | 1.3 ± 0.2
3 | CCCC[C@H]1NC(=O)[C@H](Cc2ccc(F)cc2)NC(=O)[C@H](CCCNC(=N)N)NC(=O)[C@@H](Cc2ccc3ccccc3c2)NC(=O)[C@H](CCCNC(=N)N)NC(=O)[C@H](CCCNC(=N)N)NC(=O)[C@H](CCC(=O)N[C@@H](CCCCN)C(N)=O)NC(=O)[C@@H](C)NC(=O)[C@H](C)NC(=O)[C@H](Cc2c[nH]c3ccccc23)NC(=O)[C@@H](CO)NC1=O [Cyclorasin 9A(Thr9A), (Arg-Arg-nal-Arg-Fpa-nle-ser-Trp-Ala-ala-Gln)-Lys] (cyclo(A[dA]E([Lys-NH2])RR[d2Nal]R[Phe(4-F)][dNle][dS]W)) | > 10
4 | CCCC[C@H]1NC(=O)[C@H](Cc2ccc(F)cc2)NC(=O)[C@H](CCCNC(=N)N)NC(=O)[C@@H](Cc2ccc3ccccc3c2)NC(=O)[C@H](CCCNC(=N)N)NC(=O)[C@H](CCCNC(=N)N)NC(=O)[C@@H](CCCNC(=N)N)NC(=O)[C@@H](C(C)C)NC(=O)[C@H]([C@@H](C)O)NC(=O)[C@H](Cc2c[nH]c3ccccc23)NC(=O)[C@H](CCC(N)=O)NC1=O [Cyclorasin 9A14, (Trp-Thr-val-arg-Arg-Arg-nal-Arg-Fpa-nle-Gln)] (cyclo(WT[dV][dR]RR[d2Nal]R[Phe(4-F)][dNle]Q)) | 0.13 ± 0.07
5 | CCCC[C@H]1NC(=O)[C@H](Cc2ccc(F)c(F)c2)NC(=O)[C@H](CCCNC(=N)N)NC(=O)[C@@H](Cc2ccc3ccccc3c2)NC(=O)[C@H](CCCNC(=N)N)NC(=O)[C@H](CCCNC(=N)N)NC(=O)[C@H](CCCNC(=N)N)NC(=O)[C@@H](C)NC(=O)[C@H]([C@@H](C)O)NC(=O)[C@H](Cc2c[nH]c3ccccc23)NC(=O)[C@H](CCC(N)=O)NC1=O [Cyclorasin 9A43, (Trp-Thr-ala-Arg-Arg-Arg-nal-Arg-Phe(3,4-difluoro)-nle-Gln)] (cyclo(WT[dA]RRR[d2Nal]R[Phe(3,4-F2)][dNle]Q)) | 0.064
6 | CC(C)C[C@H]1NC(=O)[C@H](Cc2ccc(F)cc2)NC(=O)[C@H](CCCNC(=N)N)NC(=O)[C@@H](Cc2ccc3ccccc3c2)NC(=O)[C@H](CCCNC(=N)N)NC(=O)[C@H](CCCNC(=N)N)NC(=O)[C@@H](CCCNC(=N)N)NC(=O)[C@@H](C)NC(=O)[C@H]([C@@H](C)O)NC(=O)[C@H](Cc2c[nH]c3ccccc23)NC(=O)[C@H](CCC(N)=O)NC1=O [Cyclorasin 9A10, (Trp-Thr-ala-arg-Arg-Arg-nal-Arg-Fpa-leu-Gln)] (cyclo(WT[dA][dR]RR[d2Nal]R[Phe(4-F)][dL]Q)) | 0.24 ± 0.13
7 | CCCC[C@H]1NC(=O)[C@H](Cc2ccc(Cl)cc2)NC(=O)[C@H](CCCNC(=N)N)NC(=O)[C@@H](Cc2ccc3ccccc3c2)NC(=O)[C@H](CCCNC(=N)N)NC(=O)[C@H](CCCNC(=N)N)NC(=O)[C@H](CCCNC(=N)N)NC(=O)[C@@H](C)NC(=O)[C@H]([C@@H](C)O)NC(=O)[C@H](Cc2c[nH]c3ccccc23)NC(=O)[C@H](CCC(N)=O)NC1=O [Cyclorasin 9A42, (Trp-Thr-ala-Arg-Arg-Arg-nal-Arg-Phe(4-chloro)-nle-Gln)] (cyclo(WT[dA]RRR[d2Nal]R[Phe(4-Cl)][dNle]Q)) | 0.13 ± 0.02
8 | CCCC[C@H]1NC(=O)[C@H](Cc2ccc(F)cc2)NC(=O)[C@H](CCCNC(=N)N)NC(=O)[C@@H](Cc2ccc3ccccc3c2)NC(=O)[C@H](CCCNC(=N)N)NC(=O)[C@H](CCCNC(=N)N)NC(=O)[C@@H](CCCNC(=N)N)NC(=O)[C@@H](CC(C)C)NC(=O)[C@H]([C@@H](C)O)NC(=O)[C@H](Cc2c[nH]c3ccccc23)NC(=O)[C@H](CCC(N)=O)NC1=O [Cyclorasin 9A15, (Trp-Thr-leu-arg-Arg-Arg-nal-Arg-Fpa-nle-Gln)] (cyclo(WT[dL][dR]RR[d2Nal]R[Phe(4-F)][dNle]Q)) | 0.11 ± 0.04
9 | CCCC[C@H]1NC(=O)[C@H](Cc2ccc(F)cc2)NC(=O)[C@H](CCCNC(=N)N)NC(=O)[C@@H](Cc2ccc3ccccc3c2)NC(=O)[C@H](CCCNC(=N)N)NC(=O)[C@H](CCCNC(=N)N)NC(=O)[C@H](CCCNC(=N)N)NC(=O)[C@@H](C(C)C)NC(=O)[C@H]([C@@H](C)O)NC(=O)[C@H](Cc2c[nH]c3ccccc23)NC(=O)[C@H](CCC(N)=O)NC1=O [Cyclorasin 9A47, (Trp-Thr-val-Arg-Arg-Arg-nal-Arg-Fpa-nle-Gln)] (cyclo(WT[dV]RRR[d2Nal]R[Phe(4-F)][dNle]Q)) | 0.086 ± 0.011
10 | CCCC[C@H]1NC(=O)[C@H](CNC(=O)c2ccc(C#N)cc2)NC(=O)[C@H](CCCNC(=N)N)NC(=O)[C@@H](Cc2ccc3ccccc3c2)NC(=O)[C@H](CCCNC(=N)N)NC(=O)[C@H](CCCNC(=N)N)NC(=O)[C@H](CCCNC(=N)N)NC(=O)[C@@H](C)NC(=O)[C@H](C(C)(C)C)NC(=O)[C@H](Cc2c[nH]c3ccccc23)NC(=O)[C@H](CCC(N)=O)NC1=O [Cyclorasin 9A44c, (Trp-Tle-ala-Arg-Arg-Arg-nal-Arg-Dap(4-cyanobenzoyl)-nle-Gln)] (cyclo(W[Tle][dA]RRR[d2Nal]R[Dap](X3)[dNle]Q)) | 0.15 ± 0.05
11 | CCCC[C@H]1NC(=O)[C@H](Cc2ccc(F)cc2)NC(=O)[C@H](CCCNC(=N)N)NC(=O)[C@@H](Cc2ccc3ccccc3c2)NC(=O)[C@H](CCCNC(=N)N)NC(=O)[C@H](CCCNC(=N)N)NC(=O)[C@H](CCCNC(=N)N)NC(=O)[C@@H](C(C)C)NC(=O)[C@H](C(C)(C)C)NC(=O)[C@H](Cc2c[nH]c3ccccc23)NC(=O)[C@H](CCC(N)=O)NC1=O [Cyclorasin 9A48, (Trp-Tle-val-Arg-Arg-Arg-nal-Arg-Fpa-nle-Gln)] (cyclo(W[Tle][dV]RRR[d2Nal]R[Phe(4-F)][dNle]Q)) | 0.048 ± 0.003
12 | CCCC[C@H]1NC(=O)[C@H](Cc2ccc(F)cc2)NC(=O)[C@H](CCCNC(=N)N)NC(=O)[C@@H](Cc2ccc3ccccc3c2)NC(=O)[C@H](CCCNC(=N)N)NC(=O)[C@H](CCCNC(=N)N)NC(=O)[C@H](CCCNC(=N)N)NC(=O)[C@@H](C)NC(=O)[C@H](C(C)(C)C)NC(=O)[C@H](Cc2c[nH]c3ccccc23)NC(=O)[C@H](CCC(N)=O)NC1=O [Cyclorasin 9A46, (Trp-Tle-ala-Arg-Arg-Arg-nal-Arg-Fpa-nle-Gln)] (cyclo(W[Tle][dA]RRR[d2Nal]R[Phe(4-F)][dNle]Q)) | 0.13 ± 0.02
13 | CCCC[C@H]1NC(=O)[C@H](Cc2ccc(F)cc2)NC(=O)[C@H](CCCNC(=N)N)NC(=O)[C@@H](Cc2ccc3ccccc3c2)NC(=O)[C@H](CCCNC(=N)N)NC(=O)[C@H](CCCNC(=N)N)NC(=O)[C@@H](CCCNC(=N)N)NC(=O)[C@@H](C)NC(=O)[C@H](C(C)C)NC(=O)[C@H](Cc2c[nH]c3ccccc23)NC(=O)[C@H](CCC(N)=O)NC1=O [Cyclorasin 9A18, (Trp-Val-ala-arg-Arg-Arg-nal-Arg-Fpa-nle-Gln)] (cyclo(WV[dA][dR]RR[d2Nal]R[Phe(4-F)][dNle]Q)) | 0.23 ± 0.11
14 | C[C@H]1NC(=O)[C@H](Cc2ccc(F)cc2)NC(=O)[C@H](CCCNC(=N)N)NC(=O)[C@@H](Cc2ccc3ccccc3c2)NC(=O)[C@H](CCCNC(=N)N)NC(=O)[C@H](CCCNC(=N)N)NC(=O)[C@H](CCC(=O)N[C@@H](CCCCN)C(N)=O)NC(=O)[C@@H](C)NC(=O)[C@H]([C@@H](C)O)NC(=O)[C@H](Cc2c[nH]c3ccccc23)NC(=O)[C@@H](CO)NC1=O [Cyclorasin 9A(nle6dA), (Arg-Arg-nal-Arg-Fpa-ala-ser-Trp-Thr-ala-Gln)-Lys] (cyclo(RR[d2Nal]R[Phe(4-F)][dA][dS]WT[dA]E([Lys-NH2]))) | 7.7 ± 5.6
15 | CCCC[C@H]1NC(=O)[C@H](Cc2ccc(F)cc2)NC(=O)[C@H](CCCNC(=N)N)NC(=O)[C@@H](Cc2ccc3ccccc3c2)NC(=O)[C@H](CCCNC(=N)N)NC(=O)[C@H](CCCNC(=N)N)NC(=O)[C@H](CCC(=O)N[C@@H](CCCCN)C(N)=O)NC(=O)[C@@H](C)NC(=O)[C@H]([C@@H](C)O)NC(=O)[C@H](Cc2c[nH]c3ccccc23)NC(=O)[C@@H](C)NC1=O [Cyclorasin 9A(ser7dA), (Arg-Arg-nal-Arg-Fpa-nle-ala-Trp-Thr-ala-Gln)-Lys] (cyclo(RR[d2Nal]R[Phe(4-F)][dNle][dA]WT[dA]E([Lys-NH2]))) | 0.77 ± 0.49
16 | CCCC[C@H]1NC(=O)[C@H](Cc2ccc(F)cc2)NC(=O)[C@H](CCCNC(=N)N)NC(=O)[C@@H](Cc2ccc3ccccc3c2)NC(=O)[C@H](CCCNC(=N)N)NC(=O)[C@H](CCCNC(=N)N)NC(=O)[C@@H](CCCNC(=N)N)NC(=O)[C@@H](C)NC(=O)[C@H](C(C)(C)C)NC(=O)[C@H](Cc2c[nH]c3ccccc23)NC(=O)[C@H](CCC(N)=O)NC1=O [Cyclorasin 9A16, (Trp-Tle-ala-arg-Arg-Arg-nal-Arg-Fpa-nle-Gln)] (cyclo(W[Tle][dA][dR]RR[d2Nal]R[Phe(4-F)][dNle]Q)) | 0.11 ± 0.01

Same assay, conditions: relative to parent 9A5/9A6

Row | SMILES | increase in Ras binding affinity upon residue substitution [fold]
17 | CCCC[C@H]1NC(=O)[C@H](Cc2ccc(F)cc2)NC(=O)[C@H](CCCNC(=N)N)NC(=O)[C@@H](Cc2ccc3ccccc3c2)NC(=O)[C@H](CCCNC(=N)N)NC(=O)[C@H](CCCNC(=N)N)NC(=O)[C@@H](CCCNC(=N)N)NC(=O)[C@@H](C(C)C)NC(=O)[C@H]([C@@H](C)O)NC(=O)[C@H](Cc2c[nH]c3ccccc23)NC(=O)[C@H](CCC(N)=O)NC1=O [Cyclorasin 9A14, (Trp-Thr-val-arg-Arg-Arg-nal-Arg-Fpa-nle-Gln)] (cyclo(WT[dV][dR]RR[d2Nal]R[Phe(4-F)][dNle]Q)) | ~2
18 | CCCC[C@H]1NC(=O)[C@H](Cc2ccc(F)c(F)c2)NC(=O)[C@H](CCCNC(=N)N)NC(=O)[C@@H](Cc2ccc3ccccc3c2)NC(=O)[C@H](CCCNC(=N)N)NC(=O)[C@H](CCCNC(=N)N)NC(=O)[C@H](CCCNC(=N)N)NC(=O)[C@@H](C)NC(=O)[C@H]([C@@H](C)O)NC(=O)[C@H](Cc2c[nH]c3ccccc23)NC(=O)[C@H](CCC(N)=O)NC1=O [Cyclorasin 9A43, (Trp-Thr-ala-Arg-Arg-Arg-nal-Arg-Phe(3,4-difluoro)-nle-Gln)] (cyclo(WT[dA]RRR[d2Nal]R[Phe(3,4-F2)][dNle]Q)) | 2
19 | CCCC[C@H]1NC(=O)[C@H](Cc2ccc(F)cc2)NC(=O)[C@H](CCCNC(=N)N)NC(=O)[C@@H](Cc2ccc3ccccc3c2)NC(=O)[C@H](CCCNC(=N)N)NC(=O)[C@H](CCCNC(=N)N)NC(=O)[C@@H](CCCNC(=N)N)NC(=O)[C@@H](C)NC(=O)[C@H](C(C)(C)C)NC(=O)[C@H](Cc2c[nH]c3ccccc23)NC(=O)[C@H](CCC(N)=O)NC1=O [Cyclorasin 9A16, (Trp-Tle-ala-arg-Arg-Arg-nal-Arg-Fpa-nle-Gln)] (cyclo(W[Tle][dA][dR]RR[d2Nal]R[Phe(4-F)][dNle]Q)) | ~2
